Results on 21 compounds are retold here after patent publication US20250289804A1, “SUBSTITUTED INDOLE COMPOUNDS AND METHODS OF USE THEREOF” (NOVARTIS PHARMA AG, priority 2021, published 2025).

The target in one experiment is human C3bBb (Homo sapiens (Human), UniProt P00751). The experiment is described as follows: Human C3bBb enzyme assay (C3a generation from C3, ELISA). It is filed as biochemical. As to conditions: read-out: Human C3b:Bb IC50 Avg. How it is done: Compounds disclosed herein were evaluated for their potency to inhibit human C3bBb in a biochemical assay. To generate active C3bBb complex in vitro, purified human C3b (Complement Technology, A114), CFB (Complement Technology, A135) and CFD (Complement Technology, A136) were mixed in a 1:1:1 ratio to a final concentration of 1 μM each in the C3bBb assay buffer (PBS pH 7.4, 100 μM NiCl2, 0.05% (w/v) CHAPS). The reaction mix was incubated at room temperature for 30 minutes on a rotating platform. […] On the day of the enzyme assay, a reaction mixture containing 3 nM C3bBb complex and 1 μM purified human C3 (Complement Technology, A113) was prepared in the C3bBb assay buffer. Compounds were serial diluted 3-fold in 100% DMSO for a 10-point dose-response curve. A 0.5 μL aliquot of diluted compound solution was transferred to a conical bottom 96-well plate, before 49.5 μL of the reaction mix was added to each well to initiate the reaction. The plate was incubated for 1 hour at room temperature. […] The generation of C3a from C3 by the C3bBb complex was measured using the MicroVue C3a Plus EIA ELISA kit (Quidel, A031). The concentration of C3a from each well was calculated using a standard curve. Percent inhibition values were generated using the baseline (C3 only) and the maximum control (DMSO instead of compound), and IC50 of each compound was calculated using 4-parameter logistic regression.
human C3bBb, sequence (P00751 260-764): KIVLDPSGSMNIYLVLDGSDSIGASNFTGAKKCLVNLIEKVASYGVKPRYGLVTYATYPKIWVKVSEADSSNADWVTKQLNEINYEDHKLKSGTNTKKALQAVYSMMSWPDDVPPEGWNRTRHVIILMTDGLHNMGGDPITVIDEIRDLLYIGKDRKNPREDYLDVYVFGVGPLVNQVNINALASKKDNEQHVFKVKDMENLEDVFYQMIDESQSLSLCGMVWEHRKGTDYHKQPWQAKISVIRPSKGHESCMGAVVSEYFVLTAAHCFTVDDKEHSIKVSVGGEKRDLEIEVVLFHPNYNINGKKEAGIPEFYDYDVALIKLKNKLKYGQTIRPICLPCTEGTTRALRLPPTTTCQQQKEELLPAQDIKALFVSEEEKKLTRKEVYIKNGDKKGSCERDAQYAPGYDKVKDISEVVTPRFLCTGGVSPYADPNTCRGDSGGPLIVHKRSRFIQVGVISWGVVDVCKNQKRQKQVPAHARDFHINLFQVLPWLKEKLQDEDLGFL
human C3bBb, sequence (P01024 23-667 partner): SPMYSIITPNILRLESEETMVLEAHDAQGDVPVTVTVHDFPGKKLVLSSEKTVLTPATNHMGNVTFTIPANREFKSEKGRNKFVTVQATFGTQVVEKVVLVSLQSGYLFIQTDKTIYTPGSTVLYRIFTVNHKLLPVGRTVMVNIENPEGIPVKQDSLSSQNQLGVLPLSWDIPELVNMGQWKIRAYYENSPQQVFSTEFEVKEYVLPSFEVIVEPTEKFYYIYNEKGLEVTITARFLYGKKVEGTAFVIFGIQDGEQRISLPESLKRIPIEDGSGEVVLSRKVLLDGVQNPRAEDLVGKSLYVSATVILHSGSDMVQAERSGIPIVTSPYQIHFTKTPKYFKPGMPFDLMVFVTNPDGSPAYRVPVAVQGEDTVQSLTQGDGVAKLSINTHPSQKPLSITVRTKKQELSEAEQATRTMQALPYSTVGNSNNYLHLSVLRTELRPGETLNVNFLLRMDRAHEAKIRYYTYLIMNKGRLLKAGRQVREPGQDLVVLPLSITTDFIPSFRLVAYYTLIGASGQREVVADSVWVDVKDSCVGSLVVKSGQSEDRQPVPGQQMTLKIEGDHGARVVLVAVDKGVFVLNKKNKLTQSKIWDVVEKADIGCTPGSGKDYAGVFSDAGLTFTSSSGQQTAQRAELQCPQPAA
human C3bBb, sequence (P01024 749-1663 partner): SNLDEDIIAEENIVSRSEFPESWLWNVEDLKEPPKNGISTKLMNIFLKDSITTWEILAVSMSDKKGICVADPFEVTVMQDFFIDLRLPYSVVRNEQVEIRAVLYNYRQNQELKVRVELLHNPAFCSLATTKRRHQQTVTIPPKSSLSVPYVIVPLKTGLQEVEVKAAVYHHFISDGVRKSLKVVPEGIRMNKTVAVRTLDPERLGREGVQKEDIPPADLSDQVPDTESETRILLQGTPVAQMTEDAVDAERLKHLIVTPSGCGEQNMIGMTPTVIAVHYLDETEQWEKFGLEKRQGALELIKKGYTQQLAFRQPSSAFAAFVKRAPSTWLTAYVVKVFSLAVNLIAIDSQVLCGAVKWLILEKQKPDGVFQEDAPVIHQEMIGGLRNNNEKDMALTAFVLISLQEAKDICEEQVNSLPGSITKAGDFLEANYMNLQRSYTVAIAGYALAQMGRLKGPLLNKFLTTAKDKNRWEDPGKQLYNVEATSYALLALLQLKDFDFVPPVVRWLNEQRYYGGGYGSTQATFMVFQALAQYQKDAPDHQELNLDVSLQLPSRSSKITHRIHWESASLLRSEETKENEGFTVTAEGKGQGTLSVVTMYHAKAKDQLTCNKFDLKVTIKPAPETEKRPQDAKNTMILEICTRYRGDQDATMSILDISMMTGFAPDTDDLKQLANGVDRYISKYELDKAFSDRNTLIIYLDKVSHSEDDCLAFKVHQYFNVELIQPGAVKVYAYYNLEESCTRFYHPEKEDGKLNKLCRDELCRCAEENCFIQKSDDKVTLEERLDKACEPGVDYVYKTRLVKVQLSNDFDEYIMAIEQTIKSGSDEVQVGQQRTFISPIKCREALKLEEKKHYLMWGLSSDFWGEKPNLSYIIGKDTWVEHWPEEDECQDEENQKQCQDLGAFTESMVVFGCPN
In general terms: ELISA stands for enzyme-linked immunosorbent assay.

The subject of experiment [1] is MAC formation in normal human serum. The experiment is described as follows: Human serum MAC formation assay (zymosan-coated plates, 50% normal human serum). The settings on record: 50% normal human serum with EGTA, 37° C. 30 minutes. How it is done:
MAC deposition assay using normal human serum was applied to evaluate compound potency under physiologically relevant conditions. Black Maxisorp plates (Thermo Fisher, 437111) were coated with preactivated zymosan (Complement Technology, B400) at 0.5 mg/mL in carbonate buffer (pH 9.5, Sigma, C3041) at room temperature overnight. Compounds were serial diluted 3-fold in 100% DMSO for a 10-point dose-response curve. Normal human serum (Complement Technology, NHS) was diluted to 50% (v/v) with the gelatin buffer (4.2 mM HEPES pH 7.4, 0.15 mM CaCl2, 141 mM NaCl, 4.5 mM MgCl2, 0.1% gelatin) containing 20 mM EGTA or 20 mM EDTA. In conical bottom 96-well plates, 1 μL compound and 99 μL of serum-EGTA were mixed. Serum-EDTA was used as baseline control. The serum-compound mixture was incubated at room temperature for 15 minutes before being transferred to the washed zymosan plate for complement activation at 37° C. for 30 minutes. The reaction was terminated by decanting the reaction mixture and adding blocking buffer (Thermo Fisher, 37539) for 20 minutes. MAC formation on the ELISA plate was detected using 0.2 μg/mL mouse anti-human C9 neoepitope monoclonal antibody (Thermo Fisher, MA5-33373) diluted in phosphate-buffered saline with 0.05% Tween-20 (PBST). A goat anti-mouse IgG-HRP antibody (Thermo Fisher, A16072) was used at 1:2000 in PBST as secondary antibody. After washing, the reaction was developed using QuantaBlu (Thermo Fisher, 15169) for 20 minutes at room temperature. The plates were read at 325 nm excitation and 420 nm emission wavelengths. Percent inhibition values were generated using the baseline (EDTA-serum) and the maximum control (EGTA-serum). An IC50 for each compound was calculated using 4-parameter logistic regression.

[2] abbreviates: starred values: assay conducted with 1 nM C3b:Bb enzyme.
Where [3] appears, read: 3 nM C3bBb complex, 1 μM human C3, 1 hour room temperature.

Each structure is given as a SMILES string. pIC50: −log10 of the molar value. Where two headings read alike, the source gives them in different places.

In general, pIC50 refers to −log10 of the IC50, conventionally taken in molar units. As for `COc1cc(C)c2[nH]cc(F)c2c1CN1CCC2(C[C@H]1c1ccc(C(=O)O)cc1)CC(F)(F)C2` [Example 54, (S)-4-(2,2-difluoro-7-((3-fluoro-5-methoxy-7-methyl-1H-indol-4-yl)methyl)-7-azaspiro[3.5]nonan-6-yl)benzoic acid], the pIC50 at human C3bBb (setting [2]) is greater than 8.00; in experiment [1] it was greater than 7.00.

Regarding `COc1cc(C)c2[nH]ccc2c1CN1CC[C@H](n2cc(Br)cn2)C[C@H]1c1ccc(C(=O)O)cc1` (racemic) [Example 2, (±)-trans-4-(4-(4-bromo-1H-pyrazol-1-yl)-1-((5-methoxy-7-methyl-1H-indol-4-yl)methyl)piperidin-2-yl)benzoic acid], the figures for the negative logarithm of the IC50 (pIC50) (on human C3bBb (setting [3]); in experiment [1]) were 7.00 to 7.30 and 6.30 to 6.52, respectively.

Regarding `COc1cc(C)c2[nH]ccc2c1CN1CCC2(COC2)CC1c1ccc(C(=O)O)cc1` (racemic) [Example 31, (±)-4-(7-((5-methoxy-7-methyl-1H-indol-4-yl)methyl)-2-oxa-7-azaspiro[3.5]nonan-6-yl)benzoic acid], the pIC50 is greater than 8.00 at human C3bBb (setting [2]) and less than 6.30 in experiment [1].

For `COc1cc(C)c2[nH]ccc2c1CN1CC[C@H](n2cccn2)C[C@H]1c1ccc(C(=O)O)cc1` (racemic) [Example 9, (±)-trans-4-(1-((5-methoxy-7-methyl-1H-indol-4-yl)methyl)-4-(1H-pyrazol-1-yl)piperidin-2-yl)benzoic acid], the negative logarithm of the IC50 (pIC50) is less than 7.00 at human C3bBb (setting [3]) and less than 6.30 in experiment [1].

For the compound `COc1cc(C)c2[nH]ccc2c1CN1CC[C@H](NC2CCC2)C[C@H]1c1ccc(C(=O)O)cc1` [Example 20, 4-((2S,4S)-4-(cyclobutylamino)-1-((5-methoxy-7-methyl-1H-indol-4-yl)methyl)piperidin-2-yl)benzoic acid], the pIC50 on human C3bBb (setting [3]) is 7.30 to 7.60; in experiment [1] it was 6.30 to 6.52.

`COc1cc(C)c2[nH]ccc2c1CN1CC[C@H](n2cc(C(F)F)cn2)C[C@H]1c1ccc(C(=O)O)cc1` (racemic) [Example 7, (±)-trans-4-(4-(4-(difluoromethyl)-1H-pyrazol-1-yl)-1-((5-methoxy-7-methyl-1H-indol-4-yl)methyl)piperidin-2-yl)benzoic acid]: the negative-log IC50 (pIC50) is greater than 8.00 at human C3bBb (setting [2]) and 6.70 to 7.00 in experiment [1].

Regarding `COc1cc(C)c2[nH]ccc2c1CN1CCN(CC(F)(F)F)C[C@H]1c1ccc(C(=O)O)cc1` [Example 65, (R)-4-(1-((5-methoxy-7-methyl-1H-indol-4-yl)methyl)-4-(2,2,2-trifluoroethyl)piperazin-2-yl)benzoic acid], the negative logarithm of the IC50 (pIC50) at human C3bBb (setting [2]) was 7.60 to 8.00; in experiment [1], 6.52 to 6.70.

For the compound `COc1cc(C)c2[nH]ccc2c1CN1CC[C@H](N2CCCC2=O)C[C@H]1c1ccc(C(=O)O)cc1` [Example 13, 4-((2S,4S)-1-((5-methoxy-7-methyl-1H-indol-4-yl)methyl)-4-(2-oxopyrrolidin-1-yl)piperidin-2-yl)benzoic acid], the pIC50 on human C3bBb (setting [2]) was 7.00 to 7.30; in experiment [1], 6.70 to 7.00.

Consider `COc1cc(C)c2[nH]ccc2c1CN1CC[C@H](OC2COC2)C[C@H]1c1ccc(C(=O)O)cc1` [Example 82, 4-((2S,4S)-1-((5-methoxy-7-methyl-1H-indol-4-yl)methyl)-4-(oxetan-3-yloxy)piperidin-2-yl)benzoic acid], for which the pIC50 at human C3bBb (setting [2]) is 7.60 to 8.00; in experiment [1], 6.52 to 6.70.

On to `COc1cc(C)c2[nH]ccc2c1CN1CC[C@H](n2cc(Cl)cn2)C[C@H]1c1ccc(C(=O)O)cc1` [Example 8], for which the results for the pIC50 (on human C3bBb (setting [2]); in experiment [1]) were greater than 8.00 and greater than 7.00, respectively.

On to `COc1cc(C)c2[nH]ccc2c1CN1CCC2(CC(=O)C2)C[C@H]1c1ccc(C(=O)O)cc1` [Example 58, (S)-4-(7-((5-methoxy-7-methyl-1H-indol-4-yl)methyl)-2-oxo-7-azaspiro[3.5]nonan-6-yl)benzoic acid], for which the pIC50 at human C3bBb (setting [2]) was greater than 8.00; in experiment [1], 6.70 to 7.00.

On to `COc1cc(C)c2[nH]ccc2c1CN1CC[C@H](c2ccccn2)C[C@H]1c1ccc(C(=O)O)cc1` [Example 38, 4-((2S,4S)-1-((5-methoxy-7-methyl-1H-indol-4-yl)methyl)-4-(pyridin-2-yl)piperidin-2-yl)benzoic acid], for which the pIC50 on human C3bBb (setting [3]) is 7.00 to 7.30; in experiment [1] it was 6.52 to 6.70.

In the case of `COc1cc(C)c2[nH]ccc2c1CN1CCC2(C[C@H]1c1ccc(C(=O)O)c(F)c1)CC(F)(F)C2` [Example 50, (S)-4-(2,2-difluoro-7-((5-methoxy-7-methyl-1H-indol-4-yl)methyl)-7-azaspiro[3.5]nonan-6-yl)-2-fluorobenzoic acid], the results for the pIC50 (at human C3bBb (setting [2]); in experiment [1]) were greater than 8.00 and greater than 7.00, respectively.

Regarding `COc1cc(C)c2[nH]ccc2c1CN1CC[C@H](OC2CCC2)C[C@H]1c1ccc(C(=O)O)cc1` [Example 84, 4-((2S,4S)-4-cyclobutoxy-1-((5-methoxy-7-methyl-1H-indol-4-yl)methyl)piperidin-2-yl)benzoic acid], the negative logarithm of the IC50 (pIC50) was 7.30 to 7.60 on human C3bBb (setting [2]) and 6.52 to 6.70 in experiment [1].

Consider `COc1cc(C)c2[nH]ccc2c1CN1CC[C@H](NCC(F)F)C[C@H]1c1ccc(C(=O)O)cc1` [Example 22, 4-((2S,4S)-4-((2,2-difluoroethyl)amino)-1-((5-methoxy-7-methyl-1H-indol-4-yl)methyl)piperidin-2-yl)benzoic acid], for which the figures for the pIC50 (at human C3bBb (setting [2]); in experiment [1]) were greater than 8.00 and 6.70 to 7.00, respectively.

Regarding `Cc1cc(C2CC2)c(CN2CC[C@H](N3CC(C#N)C3)C[C@H]2c2ccc(C(=O)O)cc2)c2cc[nH]c12` [Example 77, 4-((2S,4S)-4-(3-cyanoazetidin-1-yl)-1-((5-cyclopropyl-7-methyl-1H-indol-4-yl)methyl)piperidin-2-yl)benzoic acid], the results for the pIC50 (on human C3bBb (setting [2]); in experiment [1]) were greater than 8.00 and greater than 7.00, respectively.

As to `COc1cc(C)c2[nH]ccc2c1CN1CCN(CCF)C[C@H]1c1ccc(C(=O)O)cc1` [Example 70, (R)-4-(4-(2-fluoroethyl)-1-((5-methoxy-7-methyl-1H-indol-4-yl)methyl)piperazin-2-yl)benzoic acid], the values for the negative logarithm of the IC50 (pIC50) (at human C3bBb (setting [2]); in experiment [1]) were 7.30 to 7.60 and 6.52 to 6.70, respectively.

Turning to `COc1cc(C)c2[nH]cc(Cl)c2c1CN1CCC2(C[C@H]1c1ccc(C(=O)O)cc1)CC(F)(F)C2` [Example 53, (S)-4-(7-((3-chloro-5-methoxy-7-methyl-1H-indol-4-yl)methyl)-2,2-difluoro-7-azaspiro[3.5]nonan-6-yl)benzoic acid], the pIC50 was greater than 8.00 on human C3bBb (setting [2]) and greater than 7.00 in experiment [1].

Turning to `Cc1cc(C2CC2)c(CN2CC[C@H](N3CC4(CC4)C3)C[C@H]2c2ccc(C(=O)O)cc2)c2cc[nH]c12` [Example 78, 4-((2S,4S)-1-((5-cyclopropyl-7-methyl-1H-indol-4-yl)methyl)-4-(5-azaspiro[2.3]hexan-5-yl)piperidin-2-yl)benzoic acid], the values for the pIC50 (at human C3bBb (setting [2]); in experiment [1]) were 7.30 to 7.60 and 6.70 to 7.00, respectively.

On to `COc1cc(C)c2[nH]ccc2c1CN1CC[C@H](n2cncn2)C[C@H]1c1ccc(C(=O)O)cc1` (racemic) [Example 3, (±)-trans-4-(1-((5-methoxy-7-methyl-1H-indol-4-yl)methyl)-4-(1H-1,2,4-triazol-1-yl)piperidin-2-yl)benzoic acid], for which the results for the pIC50 (on human C3bBb (setting [3]); in experiment [1]) were 7.60 to 8.00 and less than 6.30, respectively.

Turning to `COc1cc(C)c2[nH]ccc2c1CN1CC[C@H](NCC2(F)CC2)C[C@H]1c1ccc(C(=O)O)cc1` [Example 23, 4-((2S,4S)-4-(((1-fluorocyclopropyl)methyl)amino)-1-((5-methoxy-7-methyl-1H-indol-4-yl)methyl)piperidin-2-yl)benzoic acid], the pIC50 on human C3bBb (setting [2]) was 7.00 to 7.30; in experiment [1] it was 6.30 to 6.52.
